The results in this text go back to patent publication US20230292776A1, “GAS PHASE TREATMENT OF PRODUCE” (priority 2022, published 2023).

The subject of this test is Colletotrichum gloeosporioides (Cg). In words: Antifungal activity against Colletotrichum gloeosporioides (Cg) in wounded, infected avocados. It is filed as in vivo. As to conditions: for reduction of the incidence of Cg mold compared to the untreated test group: vapor of 3 mL in a Petri dish; for incidence of Cg mold: day 5. How it is done: Example 7. The antifungal activity of AITC and DADS vapor against Colletotrichum gloeosporioides (Cg) was tested in avocados. All test pieces were wounded by removing the stem and infected by dispensing 1000 Cg spores suspended in 10 μL of water into the wound. The test groups consisted of avocados that were: untreated and uninfected; untreated and infected; treated by dipping in a solution of 0.1 g/L of prochloraz; exposed to the vapor of 3 mL of AITC disposed in a Petri dish; and exposed to the vapor of 3 mL of DADS disposed in a Petri dish. FIG. 9 quantifies the infection results. AITC vapor reduced the incidence of Cg mold by 97% compared to the untreated test group and 70% compared to the prochloraz treated test group. DADS vapor reduced the incidence of Cg mold by 60% compared to the untreated test group.
Example 8. The antifungal activity of a range of DADS vapor exposure times was tested against Cg in avocados. All test pieces were wounded by removing the stem and infected by dispensing 1000 Cg spores suspended in 10 μL of water into the wound. The test groups consisted of avocados that were: infected and untreated; and exposed to the vapor of 3 mL of DADS in a Petri dish for 24 hours, 48 hours, and 72 hours. FIG. 10 quantifies the infection results. Test group exposed to DADS vapor at all exposure times reduced the incidence of Cg mold compared to the untreated test group. A 24 hour DADS exposure reduced the incidence of Cg mold by 8%. A 48 hour DADS exposure reduced the incidence of Cg mold by 25%. A 72 hour DADS exposure reduced the incidence of Cg mold by 57%.
Example 9. The antifungal activity of a range of AITC and carvacrol vapor exposure times was tested against Cg in avocados. To measure the effect of the various treatments on ripening, durometer shore was taken after 7 days of incubation at ambient temperature and high humidity. All samples were wounded by removing the stem and infected by dispensing 1000 Cg spores suspended in 10 μL of water in the wound. The test groups consisted of avocados that were: infected and left untreated on the benchtop; infected and left untreated under a fume hood; exposed to the vapor of 3 mL of AITC in a Petri dish for 24 hours, 48 hours, and 72 hours; and exposed to the vapor of 3 mL of carvacrol in a Petri dish for 72 hours. FIG. 11 quantifies the infection results. […] All exposure times to AITC vapor reduced the incidence of Cg mold compared to the untreated samples. A 24 hour AITC exposure reduced the incidence of Cg mold by 90%. A 48 hour AITC exposure reduced the incidence of Cg mold by 97%. A 72 hour AITC exposure reduced the incidence of Cg mold by 83%.
Example 10. The antifungal activity of a range of AITC vapor exposure times were tested against Cg in avocados. To measure the effect of the various treatments on ripening, durometer shore was taken after 6 days of incubation at ambient temperature and high humidity. All samples were wounded by removing the stem and infected by dispensing 1000 Cg spores suspended in 10 μL of water in each wound. The test groups consisted of avocados that were: infected and left untreated on the benchtop; infected and left untreated in a fume hood; exposed to the vapor of 3 mL of AITC in a Petri dish for 24 hours, 48 hours, and 72 hours. FIG. 13 quantifies the infection results. […] All exposure times to AITC vapor reduced the incidence of Cg mold compared to the untreated samples.
Example 21. The antifungal activity of avocados exposed to AITC vapor and prochloraz was tested against Cg in avocados. To measure the effect of the various treatments on ripening, durometer shore was taken after 5 days of incubation at ambient temperature (about 20° C. to about 25° C.) and high humidity (about 88% relative humidity to about 93% relative humidity). All samples were wounded by removing the stem and infected by dispensing 1000 Cg spores suspended in 10 μL of water in the wound. […]

On to `C=CCN=C=S` [AITC, allyl isothiocyanate], for which the “reduction of the incidence of Cg mold compared to the untreated test group” value (Example 7, avocados) worked out at 97%. In addition, the “reduction of the incidence of Cg mold compared to the prochloraz treated test group” value (Example 7, avocados, vapor of 3 mL, prochloraz 0.1 g/L dip) stood at 70%. Also, the “reduction of the incidence of Cg mold” value is, setting by setting: (Example 9, avocados, vapor of 3 mL, 24 hour exposure) 90%; (Example 9, avocados, vapor of 3 mL, 48 hour exposure) 97%; (Example 9, avocados, vapor of 3 mL, 72 hour exposure) 83%; (Example 10, avocados, vapor of 3 mL, 24 hour exposure) 81.5%; (Example 10, avocados, vapor of 3 mL, 48 hour exposure) 93.5%; (Example 10, avocados, vapor of 3 mL, 72 hour exposure) 86.5%. The “reduction of the incidence of Cg mold” value (Example 21, printed as 24 hour exposure) is reported as 90%. The “incidence of Cg mold” value is, setting by setting: (Example 21, 125 μL, 30 minutes) “reduced the incidence of Cg mold compared to the untreated samples and the prochloraz treated sample”; (Example 22, AITC vapor 30 minutes) “reduced the incidence of Cg mold compared to the untreated samples, the samples treated with coating agent, and the prochloraz treated sample”.
Turning to `C=CCSSCC=C` [DADS, diallyl disulfide], the “reduction of the incidence of Cg mold compared to the untreated test group” value (Example 7, avocados) stood at 60%. Further, the “reduction of the incidence of Cg mold” value runs as follows: (Example 8, avocados, vapor of 3 mL, 24 hour exposure) 8%; (Example 8, avocados, vapor of 3 mL, 48 hour exposure) 25%; (Example 8, avocados, vapor of 3 mL, 72 hour exposure) 57%.
